Data from patent US20240229156A1, “METHODS FOR USING A HYPOMETHYLATING AGENT TO TREAT DISEASES AND DISORDERS BASED ON GENE MUTATION PROFILES” (Celgene Corporation, priority 2021, published 2024).
Several values for one entry are separate records, joined by “and”; a condition that tells them apart may be missing. Identical values can stand only once.

Assays:
[1] = tested on: patients with AML who were in first remission after intensive chemotherapy; assay: Phase 3 QUAZAR (CC0486-AML-001) trial of CC-486 maintenance: gene mutation, cytogenetic and MRD status correlated with OS and RFS; format: in vivo, human
Experimental: The correlative analyses of gene mutations with clinical indices (overal survival (OS), relapse-free survival (RFS)) were performed in the CC0486-AML-001 study (the QUAZAR® study). […] In this clinical trial, the key enrollment criteria included newly diagnosed de novo or secondary AML patients, with either intermediate or poor risk (based on the 2012 National Comprehensive Cancer Network (NCCN) classification), were 55 years of age or older, who were in complete remission with or without complete blood count recovery. Patients were also those that were not candidates for hematopoietic stem-cell transplantation. See, ClinicalTrials.gov Identifier: NCT01757535, https://clinicaltrials.gov/ct2/show/NCT01757535, the entirety of which is incorporated herein by reference.
The primary end point was overall survival (OS). Secondary end points included relapse-free survival (RFS).
Bone marrow mononuclear cell (BMMC) DNA was isolated from patients at diagnoses (before consideration for study enrollment) and specific gene mutations (NPM1, FLT3 ITD, FLT3 TKD, CEBPA, MLL, P53, cKIT, NRAS) were determined by investigator report or retrospectively identified by central sequencing for available samples. Cytogenetic risk classification was performed according to the 2012 NCCN Guidelines (source: National Comprehensive Cancer Network Clinical Practice Guidelines in Oncology for Acute Myeloid Leukemia; available at https://www.nccn.org/professionals/physician_gls/PDF/aml.pdf); only intermediate- and poor-risk patients were eligible.
At screening (post-IC/C induction chemotherapy/consolidation, when patients achieved complete remission (CR) or CR with incomplete blood count recovery (CRi), gene mutations were identified by targeted next-generation sequencing (ArcherDX VariantPlex Core Myeloid panel; 37 genes, ArcherDX, Boulder, CO) of DNA isolated from BMMCs. Gene mutational analyses and variants reported were based on the sequence coverages of the 37-gene AML panel. Mutation variants were filtered. Karyotypes from post-IC/C bone marrow samples were determined by MLL (Munich Leukemia Laboratory, Munich, Germany). […] defined as three or more cytogenetic abnormalities in the absence of a WHO designated recurring translocation or inversion; i.e., t(8;21)(q22;q22.1); t(9;11)(p21.3;q23.3); inv(3)(q21.3q26.2) or t(3;3)(q21.3;q26.2); t(6;9)(p23;q34.1); t(v;11;q23.3).
When applicable, statistical analyses were performed using Prism Software (v.8.0.0; GraphPad Software, San Diego, CA) or R statistical computing software environment (v3.6.3). OS and RFS were estimated using Kaplan-Meier methods and P values were calculated using the log-rank test. Cox regression analyses were performed to evaluate the association of gene mutation status and treatment arm with OS and RFS. Gene mutation frequencies and landscape were visualized. Correlative analyses including single gene mutation and co-mutational queries were performed with clinical response. All possible pairings between genes and/or cytogenetic alterations were evaluated for tendency to co-occur or for mutual exclusivity; i.e., a pair of alterations occurring together more frequently or rarely than expected by their individual frequencies, as described by Papaemmanuil et al. (N Engl J Med, 2016). 2×2 contingency tables were generated to test putative associations using Fisher's exact tests and adjusted to control for multiple hypothesis testing. Significant differences between groups were assessed using statistical methods listed in the corresponding Figure footnotes. P-values were considered statistically significant at *p≤0.05, **p≤0.01, or ***p≤0.001.

[2] = tested on: DNA methylation; conditions: clinical studies; cited from earlier work

Nc1ncn([C@@H]2O[C@H](CO)C(O)C2O)c(=O)n1 (stereo partly drawn) [CC-486, 4-amino-l-B-D-ribofuranosyl-1,3,5-triazin-2(1H)-one]
median OS ([1]; DNMT3A mutation postIC/C, FIG. 18A, placebo 13.0, p=0.0003): 24.8 months
median RFS ([1]; DNMT3A mutation postIC/C, FIG. 18B, placebo 4.7, p<0.0001): 18.4 months
median OS ([1]; FIG. 6B (RFS figure), NPM1 mutation at diagnosis, placebo 6.9, p=0.0098): 23.2 months
median OS ([1]; FIG. 9B (RFS figure), FLTITD/FLT3-TKD mutation, placebo 4.6, p=0.0475): 23.1 months
median OS ([1]; FIG. 10B (RFS figure), NPM1 mutation and FLTITD WT, placebo 7.8, p=0.0572): 21.1 months
median OS ([1]; FIG. 10F (RFS figure), NPM1 WT and FLTITD mutation, placebo 4.0, p=0.9446): 4.5 months
median OS ([1]; FLTITD/FLT3-TKD mutation NPM1 WT, FIG. 13B, placebo 8.7, p=0.4105): 11.8 months
prolonged RFS, CC-486 vs placebo ([1]; FLTITD/FLT3-TKD mutation NPM1 WT, FIG. 13D): no statistical significance
median OS ([1]; FLTITD/FLT3-TKD mutation at diagnosis, placebo 9.7, p=0.0797): 28.2 months
median RFS ([1]; FLTITD/FLT3-TKD wild type, placebo 4.9, p=0.0009): 10.2 months
median OS ([1]; FLTITD/FLT3-TKD wild type, placebo 15.2, p=0.0123): 24.7 months
median OS ([1]; NPM1 WT and FLTITD mutation, FIG. 10E, placebo 9.7, p=0.9207): 9.2 months
median OS ([1]; NPM1 mutation FLTITD WT, FIG. 10A, placebo 18.0, p=0.0802): 47.1 months
median OS ([1]; NPM1 mutation FLTITD/FLT3-TKD WT, FIG. 13A, placebo 20.2, p=0.0763): 47.1 months
median RFS ([1]; NPM1 mutation FLTITD/FLT3-TKD WT, FIG. 13C, placebo 7.7, p=0.0827): 18.4 months
median OS ([1]; NPM1 mutation FLTITD/FLT3-TKD mutation, FIG. 13A and 13B, placebo 13.4, p=0.0827): 46.1 months
median RFS ([1]; NPM1 mutation FLTITD/FLT3-TKD mutation, FIG. 13C and 13D, placebo 4.9, p=0.0278): 46.1 months
median OS ([1]; NPM1 mutation and FLTITD mutation, FIG. 10C, placebo 11.5, p=0.0488): 49.3 months
median RFS ([1]; NPM1 mutation and FLTITD mutation, FIG. 10D, placebo 4.6, p=0.0368): 10.2 months
median OS ([1]; NPM1 mutation and MRD negative status, FIG. 6C): 47.2 months
median OS ([1]; NPM1 mutation and MRD positive status, FIG. 6C): 32.7 months
median RFS ([1]; NPM1 mutation at diagnosis, FIG. 5C, vs NPM1 wild type p<0.0001): 23.23 months
median OS ([1]; NPM1 mutation at diagnosis, placebo 15.9, p=0.0138, vs NPM1 wild type p=0.0006): 46.09 months and 46.1 months
median OS ([1]; NPM1 wild type and MRD negative, FIG. 6C): 24.6 months
median OS ([1]; NPM1 wild type and MRD positive status, FIG. 6C): 13.8 months
median RFS ([1]; NPM1 wild type at diagnosis, placebo 4.6, p=0.0029): 7.688 months and 7.7 months
median OS ([1]; NPM1 wild type at diagnosis, placebo 14.6, p=0.0365): 19.58 months and 19.6 months
OS, CC-486 versus placebo ([1]; WT DNMT3A postIC/C): No differences
RFS, CC-486 versus placebo ([1]; WT DNMT3A postIC/C): No differences
OS, CC-486 versus placebo ([1]; WT p53 postIC/C): increases
RFS, CC-486 versus placebo ([1]; WT p53 postIC/C): increases
OS, CC-486 versus placebo ([1]; abnormal karyotype (>1 abnormality) postIC/C, FIG. 17C): no statistically significant differences
RFS, CC-486 versus placebo ([1]; abnormal karyotype (>1 abnormality) postIC/C, FIG. 17D): no statistically significant differences
median RFS ([1]; complex karyotype (≥4 abnormalities) postIC/C, vs normal karyotype p<0.0001): 1.906 months
median OS ([1]; complex karyotype (≥4 abnormalities) postIC/C, vs normal karyotype p=0.0003): 6.932 months
median OS ([1]; de novo AML, FIG. 1A, placebo 14.55, p=0.0068): 23.23 months
median RFS ([1]; de novo AML, FIG. 1B, placebo 4.90, p=0.0002): 10.15 months
median RFS ([1]; intermediate cytogenetic risk at diagnosis, placebo 5.8, p=0.0004): 11 months
median OS ([1]; intermediate cytogenetic risk at diagnosis, placebo 16, p=0.0093): 25 months
RFS, CC-486 versus placebo ([1]; mutations in SRSF2 alone postIC/C, FIG. 21A, p=0.0809): trend for improved RFS
median OS ([1]; normal karyotype (no abnormalities) postIC/C, placebo 14.95, p=0.004, vs complex karyotype p=0.0003): 25.10 months and 25.1 months
median RFS ([1]; normal karyotype postIC/C, placebo 4.895, p<0.0001, vs complex karyotype p<0.0001): 10.97 months
median OS ([1]; other patients (lack NPM1 mutation in combination with FLTITD WT), FIG. 10A, placebo 14.6, p=0.0119): 20.2 months
median RFS ([1]; other patients, FIG. 10B, placebo 4.6, p=0.0006): 7.9 months
median OS ([1]; other patients, FIG. 10C, placebo 14.9, p=0.0080): 24.7 months
median RFS ([1]; other patients, FIG. 10D, placebo 4.1, p=0.0008): 10.2 months
median OS ([1]; other patients, FIG. 10E, placebo 14.9, p=0.0020): 25.0 months
median RFS ([1]; other patients, FIG. 10F, placebo 4.9, p<0.0001): 10.2 months
OS, CC-486 versus placebo ([1]; p53 mutation postIC/C, FIG. 18C): no statistically significant differences
median RFS ([1]; p53 mutation postIC/C, FIG. 18D, placebo 3.5, p=0.0579): 7.4 months
differences in median OS or median RFS, normal versus abnormal karyotype ([1]; patients treated with CC-486, abnormal karyotype (1-3 abnormalities), FIG. 16): statistically significant differences
median RFS ([1]; poor cytogenetic risk at diagnosis, placebo 3.7, p=0.0776): 4.6 months
median OS ([1]; poor cytogenetic risk at diagnosis, placebo 7.4, p=0.0602): 14 months
median OS ([1]; secondary AML, FIG. 1A, placebo 15.67, p=0.1072): 28.19 months
median RFS ([1]; secondary AML, FIG. 1B, placebo 2.45, p=0.0118): 4.67 months
demethylative effects as compared to VIDAZA [2]: more sustainable demethylative effects
